The experiment relates to HIV-1 (H9IIIB strain). As to the kind of experiment: Cell-Based HIV Infection Assay Using a Reporter (MT4-GFP cells). The note with it: Human immunodeficiency virus 1, inflection point (IP) of viral growth inhibition; MT4-GFP cells infected with HIV-1 H9IIIB; 50% normal human serum; mean of at least two independent experiments; read-out: Cell Based IP (50% NHS). The method in brief: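 MT4-GFP cells (HIV LTR-driven GFP) bulk-infected with HIV-1 H9IIIB at low MOI for 24 h, washed, then exposed to compounds in RPMI plus 50% normal human serum, 0.4% DMSO. Infected cells counted at 24 and 48 h; R0 = 48 h/24 h ratio, inhibition normalised to DMSO and triple-drug control; IP from 4-parameter fit.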
Regarding `CO[C@H]1CC[C@H]([C@H](c2ccc(Cl)cc2)[C@H](N)C(=O)N[C@H]2CCCC[C@@H]2CC[C@H]2CN[C@@H]3CCCS(=O)(=O)N2C3)CC1` [Example 207, (βR)-4-chloro-N-[(1S,2R)-2-{2-[(6R,9S)-2,2-dioxido-2-thia-1,7-diazabicyclo[4.3.1]dec-9-yl]ethyl}cyclohexyl]-β-[(1r,4R)-4-methoxycyclohexyl]-L-phenylalaninamide], the EC50 came out at 40 nM.
For `COC(=O)N[C@H](C(=O)Nc1cccc(F)c1CC[C@H]1CN[C@@H]2CCCS(=O)(=O)N1C2)[C@@H](c1ccc(F)cc1)c1cnc(C(F)(F)F)nc1` [Example 22, Methyl [(1S)-2-[(2-{2-[(6R,9S)-2,2-dioxido-2-thia-1,7-diazabicyclo[4.3.1]dec-9-yl]ethyl}-3-fluorophenyl)amino]-1-{(S)-(4-fluorophenyl)[2-(trifluoromethyl)pyrimidin-5-yl]methyl}-2-oxoethyl]carbamate], the EC50 worked out at 15 nM.
As for `CS(=O)(=O)N1CCC(c2ccc(Cl)cc2)([C@H](N)C(=O)Nc2cccc(F)c2CC[C@H]2CN[C@@H]3CCCS(=O)(=O)N2C3)CC1` [Example 176, (2S)-2-amino-2-[4-(4-chlorophenyl)-1-(methylsulfonyl)piperidin-4-yl]-N-(2-{2-[(6R,9S)-2,2-dioxido-2-thia-1,7-diazabicyclo[4.3.1]dec-9-yl]ethyl}-3-fluorophenyl)ethanamide], the EC50 is 150 nM.
As to `CC1(C)CC([C@H](c2ccc(Cl)cc2)[C@H](NCCCC(F)(F)F)C(=O)N[C@H]2CCC[C@@H]2CC[C@H]2CN[C@@H]3CCCS(=O)(=O)N2C3)CCO1` (stereo partly drawn) [Example 184, (βR)-4-chloro-β-(2,2-dimethyltetrdhydro-2H-pyran-4-yl)-N-[(1S,2R)-2-{2-[(6R,9S)-2,2-dioxido-2-thia-1,7-diazabicyclo[4.3.1]dec-9-yl]ethyl}cyclopentyl]-Nα-(4,4,4-trifluorobutyl)-L-phenylalaninamide], the EC50 stood at 330 nM.
With `N[C@H](C(=O)N[C@H]1CCCC[C@@H]1CC[C@H]1CN[C@@H]2CCCS(=O)(=O)N1C2)[C@H](c1cncc(F)c1)c1ccc(Cl)c(F)c1` [Example 145, (βS)-4-chloro-N-[(1S,2R)-2-{2-[(6R,9S)-2,2-dioxido-2-thia-1,7-diazabicyclo[4.3.1]dec-9-yl]ethyl}cyclohexyl]-3-fluoro-β-(5-fluoropyridin-3-yl)-L-phenylalaninamide], the EC50 was 76 nM.
`CC(C)Oc1ncc([C@H](c2ccc(F)cc2)[C@H](N)C(=O)Nc2cccc(F)c2CC[C@H]2CN[C@@H]3CCCS(=O)(=O)N2C3)cn1` [Example 23, (βS)—N-(2-{2-[(6R,9S)-2,2-Dioxido-2-thia-1,7-diazabicyclo[4.3.1]dec-9-yl]ethyl}-3-fluorophenyl)-4-fluoro-β-[2-(1-methylethoxy)pyrimidin-5-yf]-L-phenylalaninamide]: the EC50 was 9.3 nM.
`COC(=O)N[C@H](C(=O)Nc1cccc(F)c1CCC1CNC2CCCS(=O)(=O)N1C2)[C@@H](c1ccc(F)cc1)c1ccc(C(F)(F)F)cc1` (stereo partly drawn) [Example 224, Methyl [(1S)-2-({2-[2-(2,2-dioxido-2-thia-1,7-diazabicyclo[4.3.1]dec-9-yl)ethyl]-3-fluorophenyl}amino)-1-{(R)-(4-fluorophenyl)[4-(trifluoromethyl)phenyl]methyl}-2-oxoethyl]carbamate]: the EC50 worked out at 5.7 nM.
Regarding `N[C@H](C(=O)Nc1cncc(F)c1CC[C@H]1CN[C@@H]2CCCS(=O)(=O)N1C2)[C@@H](c1ccc(Cl)c(F)c1)C1CCCCC1` [Example 244, (2S,3R)-2-amino-3-(4-chloro-3-fluorophenyl)-3-cyclohexyl-N-(4-(2-((6R,9S)-2,2-dioxido-2-thia-1,7-diazabicyclo[4.3.1]decan-9-yl)ethyl)-5-fluoropyridin-3-yl)propanamide], the EC50 was 4.3 nM.
With `N[C@H](C(=O)Nc1cccc(F)c1CCC1CNC2CCCS(=O)(=O)N1C2)[C@H](c1ccc(F)cc1)C1CCC(F)(F)CC1` (stereo partly drawn) [Example 61, (βS)-β-(4,4-difluorocyclohexyl)-N-{2-[2-(2,2-dioxido-2-thia-1,7-diazabicyclo[4.3.1]dec-9-yl)ethyl]-3-fluorophenyl}-4-fluoro-L-phenylalaninamide], the EC50 worked out at 160 nM.
In the case of `CCC(CC)[C@H](c1ccc(Cl)cc1)[C@H](NC(=O)OC)C(=O)Nc1cccc(F)c1CCC1CNC2CCCS(=O)(=O)N1C2` (stereo partly drawn) [Example 71, methyl [(1S,2R)-2-(4-chlorophenyl)-1-({2-[2-(2,2-dioxido-2-thia-1,7-diazabicyclo[4.3.1]dec-9-yl)ethyl]-3-fluorophenyl}carbamoyl)-3-ethylpentyl]carbamate], the EC50 stood at 41 nM.
Regarding `N[C@H](C(=O)Nc1cncc(F)c1CC[C@H]1CN[C@@H]2CCCS(=O)(=O)N1C2)[C@@H](c1ccc(Cl)cc1)c1csc(C(F)(F)F)n1` [Example 269, (βR)-4-chloro-N-(4-{2-[(6R,9S)-2,2-dioxido-2-thia-1,7-diazabicyclo[4.3.1]dec-9-yl]ethyl}-5-fluoropyridin-3-yl)-β-[2-(trifluoromethyl)-1,3-thiazol-4-yl]-L-phenylalaninamide], the EC50 came to 5 nM.
As for `C[C@@H]1C[C@H]([C@H](c2ccc(Cl)cc2)[C@H](N)C(=O)Nc2cccc(F)c2CC[C@H]2CN[C@@H]3CCCS(=O)(=O)N2C3)C[C@H](C)O1` [Example 121, (βR)-4-chloro-β-[(2R,4r,6S)-2,6-dimethyltetrahydro-2H-pyran-4-yl]-N-(2-{2-[(6R,9S)-2,2-dioxido-2-thia-1,7-diazabicyclo[4.3.1]dec-9-yl]ethyl}-3-fluorophenyl)-L-phenylalaninamide], the EC50 stood at 5.7 nM.
For `N[C@H](C(=O)Nc1cncc(F)c1CC[C@H]1CN[C@@H]2CCCS(=O)(=O)N1C2)C1(c2ccc(Cl)cc2)CCOCC1` [Example 233, (2S)-2-amino-2-[4-(4-chlorophenyl)tetrahydro-2H-pyran-4-yl]-N-(4-{2-[(6R,9S)-2,2-dioxido-2-thia-1,7-diazabicyclo[4.3.1]dec-9-yl]ethyl}-5-fluoropyridin-3-yl)ethanamide], the EC50 is 67 nM.
On to `CC1(C)CC([C@H](c2ccc(Cl)cc2)[C@H](NCCO)C(=O)N[C@H]2CCC[C@@H]2CC[C@H]2CN[C@@H]3CCCS(=O)(=O)N2C3)CCO1` (stereo partly drawn) [Example 231, (βR)-4-chloro-β-(2,2-dimethyltetrahydro-2H-pyran-4-yl)-N-[(1S,2R)-2-{2-[(6R,9S)-2,2-dioxido-2-thia-1,7-diazabicyclo[4.3.1]dec-9-yl]ethyl}cyclopentyl]-Nα-(2-hydroxyethyl)-L-phenylalaninamide], for which the EC50 was 310 nM.
As for `CC1(C)CC([C@H](c2ccc(Cl)cc2)[C@H](NCC2CC2)C(=O)N[C@H]2CCC[C@@H]2CC[C@H]2CN[C@@H]3CCCS(=O)(=O)N2C3)CCO1` (stereo partly drawn) [Example 181, (βR)-4-chloro-Nα-(cyclopropylmethyl)-β-(2,2-dimethyltetrahydro-2H-pyran-4-yl)-N-[(1S,2R)-2-{2-[(6R,9S)-2,2-dioxido-2-thia-1,7-diazabicyclo[4.3.1]dec-9-yl]ethyl)cyclopentyl]-L-phenylalaninamide], the EC50 was determined as 640 nM.
`Cn1nc([C@H](c2ccc(Cl)c(F)c2)[C@H](N)C(=O)Nc2cccc(F)c2CC[C@H]2CN[C@@H]3CCCS(=O)(=O)N2C3)cc1C(F)(F)F` [Example 265, (βR)-4-chloro-N-(2-{2-[(6R,9S)-2,2-dioxido-2-thia-1,7-diazabicyclo[4.3.1]dec-9-yl]ethyl}-3-fluorophenyl)-3-fluoro-β-[1-methyl-5-(trifluoromethyl)-1H-pyrazol-3-yl]-L-phenylalaninamide]: the EC50 is 9.8 nM.
On to `COC(=O)N[C@H](C(=O)Nc1cccc(F)c1CC[C@H]1CN[C@@H]2CCC(C)S(=O)(=O)N1C2)[C@@H](c1ccc(F)cc1)C1C[C@@H](C)O[C@@H](C)C1` (stereo partly drawn) [Example 109, methyl [(1S,2R)-2-[(2R,6S)-2,6-dimethyltetrahydro-2H-pyran-4-yl]-1-[(3-fluoro-2-{2-[(6R,9S)-3-methyl-2,2-dioxido-2-thia-1,7-diazabicyclo[4.3.1]dec-9-yl]ethyl}phenyl)carbamoyl]-2-(4-fluorophenyl)ethyl]carbamate], for which the EC50 stood at 38 nM.
For the molecule `C[C@@H]1CC([C@H](c2ccc(F)cc2)[C@H](N)C(=O)Nc2cc(F)ccc2CC[C@H]2CN[C@@H]3CCCS(=O)(=O)N2C3)C[C@H](C)O1` (stereo partly drawn) [Example 188, (βR)-β-[(2S,2R)-2,6-dimethyltetrahydro-2H-pyran-4-yl]-N-(2-{2-[(6R,9S)-2,2-dioxido-2-thia-1,7-diazabicyclo[4.3.1]dec-9-yl]ethyl}-5-fluorophenyl)-4-fluoro-L-phenylalaninamide], the EC50 worked out at 25 nM.
As to `CCO[C@H]1CC[C@H]([C@H](c2ccc(Cl)cc2)[C@H](N)C(=O)Nc2cccc(F)c2CC[C@H]2CN[C@@H]3CCCS(=O)(=O)N2C3)CC1` [Example 6, (2S,3R)-2-amino-3-(4-chlorophenyl)-N-(2-(2-((6R,9S)-2,2-dioxido-2-thia-1,7-diazabicyclo[4.3.1]decan-9-yl)ethyl)-3-fluorophenyl)-3-((1r,4R)-4-ethoxycyclohexyl)propanamide], the EC50 worked out at 6.2 nM.
In the case of `COC(=O)N[C@H](C(=O)Nc1cccc(F)c1CCC1CNC2CCCS(=O)(=O)N1C2)[C@@H](c1ccc(Cl)cc1)c1ccc(=O)n(C(C)C)c1` (stereo partly drawn) [Example 101, methyl {(1S,2S)-2-(4-chlorophenyl)-1-({2-[2-(2,2-dioxido-2-thia-1,7-diazabicyclo[4.3.1]dec-9-yl)ethyl]-3-fluorophenyl}carbamoyl)-2-[1-(1-methylethyl)-6-oxo-1,6-dihydropyridin-3-yl]ethyl}carbamate], the EC50 was 59 nM.
